Assay results as given in patent US11491132B2, “Methods for treating thrombocytopenia” (Enzychem Lifesciences Corporation, priority 2014, dated 2022).

Experiments:
[1] = system: C3; test: C3 expression in HepG2 cell line, RT-PCR of mRNA; format: cell-based, human; settings: HepG2 cells, S6I 10 and 100 microgram/ml, relative to PLAG 1 and 10 microgram/ml
Description: A liver cell line, HepG2 (American Type Culture Collection, ATCC, Rockville, Md.), is incubated and maintained at 37° C., 5% CO2 humid atmosphere in DMEM medium. When HepG2 cells, which are known to produce complement in culture, are treated with PLAG, the activity of complement is reduced effectively, as confirmed by RT-PCR of mRNA. In the RT-PCR, 5×10^5 number of HepG2 cells/ml are distributed into 12 well plates and induced C3 for 12 hours with 10% FCS. Then PLAG is added and further cultured for 2 hours. Cells are harvested and mRNA is isolated and RT-PCR is carried out with specific primer of C3; GAPDH is used as an internal control.

[2] = system: C3; test: C3 expression in IL-4/TNF-α treated HMC-1 cells, RT-PCR; format: cell-based, human; settings: HMC-1 cells treated with IL-4 and TNF-α; PLAG 0.1 and 1 μg/mL pre-treatment, or S6I
Description: A blood cell line, HMC-1 (human mast cell, American Type Culture Collection, ATCC, Rockville, Md.) is incubated and maintained at 37° C. under 5% CO2 humid conditions. The medium is IMDM (Life Technologies, Karlsruhe, Germany) containing 10% Fetal Calf Serum (FCS, HyClone, Logan, Utah), 2 mM […], 100 μg/ml penicillin, 100 μg/ml streptomycin (Life Technologies). The cultured HMC-1 cells (1×10^6 cell/ml) are pre-treated with 0.1 and 1 μg/mL concentration of PLAG, followed by treating with IL-4 (5 ng) and/or TNF-α (10 ng) to induce cellular activities.
The expressed C3 and its mRNA level change are observed by using RT-PCR (Reverse Transcriptase Polymerase Chain Reaction). The RT-PCR is carried out as follows: the total RNA is separated by the standard protocol and cDNA is synthesized using AccuScript High Fidelity 1st Strand cDNA Synthesis Kit (Stratagene) by the manufacturer's instructions. Two-step RT-PCR reaction is conducted using Oligo-dT primer and reverse transcriptase, pair of primer and Taq polymerase (Takara, Shiga, Japan). […] The product of PCR is separated using 1.5% agarose gel, dyed with ethidium bromide (EtBr), and visualized with Gel Doc 2000 UV trans-illuminator (Bio-Rad Laboratories, Hercules, Calif., USA), and the experimental data is analyzed using Quantity One software (Bio-Rad Laboratories).

[3] = system: white blood cells and neutrophils; test: PLAG in combination with G-CSF in cyclophosphamide-treated mouse model; format: in vivo, mice; settings: cyclophosphamide 100 mpk i.p. ten days; G-CSF 0.25 mpk i.p.; PLAG 25 mpk p.o.
From the text: Mice receive cyclophosphamide (100 mpk, i.p.) for a period of ten days, with or without G-CSF (0.25 mpk, i.p.) or G-CSF (0.25 mpk, i.p.) plus PLAG (25 mpk, p.o.): […]

Molecule | inhibition of C3 expression (RT-PCR) [1] | expression of C3 [2] | Neutrophils [3] | White blood cells (WBCs) [3]
NC(=O)c1cnc(NCCc2ccc(O)c(Cl)c2)nc1NCc1ccccc1 [S6I, reference compound] | comparable | suppresses expression of C3 |  | 
G-CSF: Granulocyte-colony stimulating factor, a glycoprotein that stimulates hematopoietic precursor cells in the bone marrow |  |  | 4.36 k/μl | 5.37 k/μl
